The test system of this assay is ScN2a. Kind of assay: Antiprion activity in mouse ScN2a cells assessed as inhibition of PrPSc formation at 17 uM after 3 days by dot blot assay relative to control. In kind it is cell-based.

Activity calls are given as the source filed them. No cut-off for these calls is given here.

Take `CCCCCCCC/C=C\CCCCCCCOCC(C[N+](C)(C)CCNC(=O)C(CCCNCCCN)NCCCN)OCCCCCCC/C=C\CCCCCCCC` (stereo unspecified): the inhibition result was “Active”.

(Values after ChEMBL document CHEMBL2062371, “Synthesis of benzamide derivatives and their evaluation as antiprion agents” (Bioorg Med Chem, 2012).)
